Laboratory results: article PMC7866984, “Molecular Structure, In Vitro Anticancer Study and Molecular Docking of New Phosphate Derivatives of Betulin” (Molecules, 2021)
Like-named read-outs stand apart in the source and are kept apart here.

What was measured:
[1] = system: amelanotic melanoma (C-32) cells; test: WST-1 cell viability assay, C-32; format: cell-based, human; settings: WST-1, 72 h
Experimental: (§1) Evaluation of the effect of new betulin derivatives on the viability of the cultured cells was performed using the WST-1(water soluble tetrazolium salt) assay. Betulin 1 and cisplatin were used as the reference compounds.
(§2) The synthesized compounds and references were tested for cytotoxic activity in vitro against human cancer cell lines such as amelanotic melanoma (C-32, ATCC, Rockville, MD, USA), glioblastoma (SNB-19, DSMZ, Braunschweig, Germany), and breast cancer (T47D, and MDA-MB-231, ATCC, Rockville, MD, USA). Cell cultures were maintained using DMEM (Lonza, Basel, Switzerland) supplemented with 10% fetal bovine serum (FBS) (Biological Industries Cromwell, CT, USA) and penicillin (10,000 U/mL) –streptomycin (10 mg/mL) mix (Lonza, Basel, Switzerland).
(§3) Cultures were performed in 96-well plates (Nunc Thermo Fisher Scientific, Waltham, MA, USA). Cells were seeded at 5 × 10^4/well and incubated for 24 h (at 37 °C, 5% CO2, constant humidity). Then, the medium was replaced with a fresh one with the addition of test compounds in the concentration: 25; 12.5; 6.25; 3.12; 1.56; 0.78; 0.39; 0 µg/mL and incubated again for a further 72 h. After this time, the WST-1 test (Roche Molecular Biochemicals, Mannheim, Germany) was performed to assess the metabolic activity of the cells. The principle of the WST-1 colorimetric test is based on the ability of live cells to decompose bright red tetrazole salts of WST-1 to dark red formazan. The reaction is mediated by mitochondrial dehydrogenases and correlates with the number of cells and their metabolic activity. The absorbance was measured at λ = 450 nm with a UVM340 microplate reader (Biogenet, Józefów, Poland). Results were expressed as a mean value of at least three independent experiments performed in triplicate.

[2] = system: glioblastoma (SNB-19) cells; test: WST-1 cell viability assay, SNB-19; format: cell-based, human; settings: for IC50: WST-1, 72 h
Experimental: as §1, §2, §3

[3] = system: breast cancer T47D cells; test: WST-1 cell viability assay, T47D; format: cell-based, human; settings: for IC50: read-out: IC50 ± SD, T47D
Experimental: as §1, §2, §3

[4] = system: breast cancer MDA-MB-231 cells; test: WST-1 cell viability assay, MDA-MB-231; format: cell-based, human; settings: for IC50: read-out: IC50 ± SD, MDA-MB-231
Experimental: as §1, §2, §3

[5] = RP-TLC experimental lipophilicity; format: physicochemical; settings: for RM0 / logPTLC: RP-TLC; for RM0: acetone/Tris buffer pH 7.4, extrapolated to zero acetone; for logPTLC: from RM0 by calibration equation; for -b: slope of regression plot RM = RM0 + bC
Excerpt: Lipophilicity is an important physicochemical parameter related to the biological activity of compounds. This descriptor, contained in Lipiński’s rule of five, concerns the transport of a compound through the biological membrane system and the formation of a compound–receptor complex. To assess the lipophilic nature of triterpenoids 3–5, 6a–6e, and 7a–7e, the reverse phase chromatography (RP-TLC) method was used (chromatographic procedure by RP-TLC is included in the Supplementary Materials). The theoretical characteristics of the chromatographic parameters (RM0, log PTLC) of the tested derivatives were also performed. […]
Chromatographic procedure by RP-TLC
The experimental lipophilicity parameters was determined using reversed-phase thin-layer chromatography (RP-TLC). The stationary phase was an aluminium backed silica gel RP-18 F254 S plates (Merck, Darmstadt, Germany). Chloroform solutions of reference compounds […]
(acetanilide, 4-bromoacetophenone, benzophenone, anthracene, DDT) and triterpenes 3-5, 6a-6e and 7a-7e were spotted on to the plates in the amount of 2 µL. The chromatograms were performed in triplicate for each compound. The chromatographic chambers were filled of mobile phases consisting of a mixture of acetone (POCh, Gliwice, Poland) and aqueous solution of buffer Tris [(tris-hydroxymethyl)aminomethane] (Fluka, Loughborough, 0.2 M, pH 7.4). The percent acetone volume was varied within the range of 90-60%, in 5% increments. The spots of compounds were visualized by spraying the plates with 10% ethanolic solution of sulphuric acid (VI) and heating for 3 min at 110°C [60]]. The RM values were calculated by the equation RM = log (1/Rf-1) on the basis of average Rf values. The RM0 parameters were obtained by extrapolating on the acetone content to zero, according to the equation RM = RM0 + bC (C – the percentage concentration of acetone in the mobile phase, b – the slope of the regression plot).
The experimental lipophilicity as log PTLC for triterpenes 3-5, 6a-6e and 7a-7e was calculated […]
obtained on the correlation between the literature log Plit values and the experimental RM0 values […]
Table S5. The theoretical values of lipophilicity for tested compounds 3-5, 6a-6e and 7a- […]
Table S6. The correlation matrix for theoretically obtained lipophilicity parameters of compounds 3-5, 6a-6e and 7a-7e. […]

[6] = Homo sapiens, C32, 72 h, read-out: IC50 ± SD, C-32
[7] = Homo sapiens, SNB-19, 72 h, read-out: IC50 ± SD, SNB-19
[8] = Homo sapiens, C32, 72 h, Table 5, betulonic/betulinic acid derivatives, read-out: IC50, C-32
[9] = Homo sapiens, SNB-19, 72 h, Table 5, betulonic/betulinic acid derivatives, read-out: IC50, SNB-19

For `C=C(COP(=O)(OCC)OCC)[C@@H]1CC[C@]2(COC(=O)C#CC)CC[C@]3(C)C(CCC4[C@@]5(C)CC[C@H](OC(=O)C#CC)C(C)(C)C5CC[C@]43C)C12` (stereo partly shown) [Compound 6b, 3,28-Di(2-butynoyl)-30-diethoxyphosphoryloxybetulin], the IC50 [1, 6] was > 50 µM, the IC50 [2, 7] was 4.65 ± 0.51 µM and the IC50 ([3]; Homo sapiens, T47D, 72 h) was > 50 µM. It also gave an IC50 ([4]; Homo sapiens, MDA-MB-231, 72 h) of 21.2 ± 1.24 µM, an RM0 [5] of 6.884 and a logPTLC [5] of 8.917. For the same compound, the “-b” value [5] was 0.078 and the melting point was 66 to 70 °C.

In the case of `C=C(COP(=O)(OCC)OCC)[C@@H]1CC[C@]2(COC(=O)C#Cc3ccccc3)CC[C@]3(C)C(CCC4[C@@]5(C)CC[C@H](OC(=O)C#Cc6ccccc6)C(C)(C)C5CC[C@]43C)C12` (stereo partly shown) [Compound 6d, 30-Diethoxyphosphoryloxy-3,28-di(2-phenylpropynoyl)betulin], the IC50 [1, 6] is reported as 31.5 ± 1.56 µM, the IC50 [2, 7] is reported as 11.2 ± 0.28 µM and the IC50 ([3]; Homo sapiens, T47D, 72 h) is reported as > 50 µM. For the same compound, the IC50 ([4]; Homo sapiens, MDA-MB-231, 72 h) was > 50 µM, the RM0 [5] was 7.877 and the logPTLC [5] was 10.174. The “-b” value [5] was 0.086 and the melting point was 89 to 91 °C.

In the case of `C#CCOC(=O)OC[C@]12CC[C@@H](C(=C)COP(=O)(OCC)OCC)C1C1CCC3[C@@]4(C)CC[C@H](O)C(C)(C)C4CC[C@@]3(C)[C@]1(C)CC2` (stereo partly shown) [Compound 7e, 30-Diethoxyphosphoryloxy-28-propargyloxycarbonyloxybetulin], the IC50 [1, 6] is reported as 3.97 ± 0.86 µM, the IC50 [2, 7] is reported as 1.59 ± 0.09 µM and the IC50 ([3]; Homo sapiens, T47D, 72 h) is reported as > 50 µM. For the same compound, the RM0 [5] was 5.302, the logPTLC [5] was 6.916 and the “-b” value [5] was 0.063. For the same compound, the melting point was 172 to 174 °C.

In the case of `C=C(COP(=O)(OCC)OCC)[C@@H]1CC[C@]2(C(=O)O)CC[C@]3(C)C(CCC4[C@@]5(C)CCC(O)C(C)(C)C5CC[C@]43C)C12` (stereo partly shown) [Compound 9], the IC50 [1, 8] is reported as > 50 µM, the IC50 [2, 9] is reported as 5.98 ± 0.43 µM and the “IC50 fold higher than 30-phosphonate derivative of 3-acetylbetulinic acid” value ([2]; SNB-19) is reported as “more than 4.5 fold”. For the same compound, the “activity against T47D (in words)” value [3] was “no activity” and the “activity against MDA-MB-231 (in words)” value [4] was “no activity”.

`CCOP(=O)(C=C(C)C1CCC2(C(=O)O)CCC3(C)C(CCC4C5(C)CCC(O)C(C)(C)C5CCC43C)C12)OCC` (stereo not shown) [R=29-P(O)(OC2H5)2, R1=OH, reference compound] showed an IC50 [1, 8] of 47.5 ± 2.96 µM and an IC50 [2, 9] of 7.67 ± 1.57 µM.

With `C=C(C)[C@@H]1CC[C@]2(C(=O)O)CC[C@]3(C)[C@H](CC[C@@H]4[C@@]5(C)CC[C@H](O)C(C)(C)[C@@H]5CC[C@]43C)[C@@H]12` [betulinic acid, reference compound] the IC50 ([1]; Homo sapiens, C32, Table 5, betulonic/betulinic acid derivatives, read-out: IC50, C-32) was 8.63 ± 0.9 µM and the IC50 ([2]; Homo sapiens, SNB-19, Table 5, betulonic/betulinic acid derivatives, read-out: IC50, SNB-19) was 20.1 ± 1.26 µM.

In the case of `C=C(C)[C@@H]1CC[C@]2(CO)CC[C@]3(C)[C@H](CC[C@@H]4[C@@]5(C)CC[C@H](O)C(C)(C)[C@@H]5CC[C@]43C)[C@@H]12` [Betulin], the IC50 ([1]; Homo sapiens, C32, read-out: IC50 ± SD, C-32) is reported as 15.6 ± 1.11 µM, the IC50 ([2]; Homo sapiens, SNB-19, read-out: IC50 ± SD, SNB-19) is reported as 9.93 ± 0.25 µM and the IC50 ([3]; Homo sapiens, T47D, WST-1, 72 h) is reported as > 50 µM. It also gave an IC50 ([4]; Homo sapiens, MDA-MB-231, WST-1, 72 h) of 7.76 ± 1.87 µM.

`N.N.[Cl][Pt][Cl]` [Cisplatin, reference compound] showed an IC50 ([1]; read-out: IC50 ± SD, C-32) of 4.29 ± 0.65 µM, an IC50 ([2]; read-out: IC50 ± SD, SNB-19) of 5.29 ± 0.12 µM and an IC50 ([3]; WST-1, 72 h) of 6.26 ± 1.24 µM. It also gave an IC50 ([4]; WST-1, 72 h) of 5.47 ± 0.05 µM.

With `C=C(CO)[C@@H]1CC[C@]2(COC(C)=O)CC[C@]3(C)C(CCC4[C@@]5(C)CC[C@H](OC(C)=O)C(C)(C)C5CC[C@]43C)C12` (stereo partly shown) [Compound 3, 3,28-Diacetyl-30-hydroxybetulin] the RM0 [5] was 5.655, the logPTLC [5] was 7.362 and the “-b” value [5] was 0.064.
